# Results from patent US20110196000A1, “Use of succinate dehydrogenase (SDH) inhibitors in the treatment of plant species from the family of the true grasses” (Bayer CropScience AG, priority 2010, published 2011).
# Columns and labels:
# Type in all cases: in vivo
# wheat variety Ritmo [1] = test: Plot trial: yield components; settings: sprays at BBCH 39 and 59
# [2] = test system: infection-free wheat plants of the cultivar Passat; test: Glasshouse trial: green leaf area by visual scoring; settings: for green leaf area of the flag leaf (F) / green leaf area of the second-from-top leaf (F-1) / green leaf area of the third-from-top leaf (F-2): glasshouse
# Experimental: (§1) In a glasshouse trial under controlled conditions, the effect of bixafen was investigated on the physiology, morphology and abiotic stress tolerance of infection-free wheat plants of the cultivar […] plants were grown in 10-litre containers over a period of 4 months. The substrate used was standard earth type ED 73 (Fröndenberg, Germany)+C-Horizont+Sand (4:2:1). The supply of nutrient to the plants took place by feeding with a 0.2% strength Flory 2 liquid fertilizer solution (from Euflor, Munich) once every two weeks. The plants were supplied with water as required. In each component of the trial, 10 repetitions were carried out. To prevent infestation with powdery mildew, Proquinazid (Talius® was applied once. The incidence of aphids and spider mites was avoided by treatments with Karate®, Bulldock® and Sumicidin®. The products under test were applied to the plants, in the form of sequential spray sequences (BBCH 39 and 59). The spray volume was 300 l of water per hectare. [table] The duration of the green coloration of the leaf area was captured on the basis of regular visual scoring of the fraction of the green leaf area.
# [3] = test system: infection-free wheat plants of the cultivar Passat; test: Glasshouse trial: time of heading (ear emergence); set-up: time of heading of wheat (ears emerged): unit not given here
# Experimental: (§2) In a glasshouse trial under controlled conditions, the effect of bixafen was investigated on the physiology, morphology and abiotic stress tolerance of infection-free wheat plants of the cultivar […] plants were grown in 10-litre containers over a period of 4 months. The substrate used was standard earth type ED 73 (Fröndenberg, Germany)+C-Horizont+Sand (4:2:1). The supply of nutrient to the plants took place by feeding with a 0.2% strength Flory 2 liquid fertilizer solution (from Euflor, Munich) once every two weeks. The plants were supplied with water as required. In each component of the trial, 10 repetitions were carried out.
# [4] = test system: infection-free wheat plants of the cultivar Passat; test: Glasshouse trial: yield components; settings: for Ears/pot / Harvest Index / Kernels/ear / Straw / TKM (thousand-kernel mass) / Yield: glasshouse, sprays at BBCH 39 and 59
# wheat variety Ritmo [5] = test: Plot trial: chlorophyll content of leaves (pigment extraction method of Ziegler and Ehle)
# [6] = test system: infection-free wheat plants of the cultivar Passat; test: Glasshouse trial: temperature of ears and leaves as measure of transpiration activity
# Experimental: as §2
# [7] = test system: infection-free wheat plants of the cultivar Passat; test: Glasshouse trial: size of the flag leaf; settings: for Length of the flag leaf / Width of the flag leaf / Area of the flag leaf / Area [rel.] of the flag leaf: at BBCH 83-85; for Area of the flag leaf: calculated using the formula A = 0.67 × length × width; for Area [rel.] of the flag leaf: untreated = 100
# Experimental: as §1, with “Morphological parameters measured, additionally, were the length and width, i.e. the size” for “The duration”, “flag leaf. This was greatest with” for “green coloration of”, “succinate dehydrogenase (SDH) inhibitor bixafen, in comparison to” for “leaf area was captured on”, “other comparison fungicides.” for “basis of regular visual scoring of the fraction of the green leaf area.”
# wheat = test: Effect on the number of kernels/ear
# [8] = 68 days after second fungicide application (so in the source)
# [9] = 75 days after second fungicide application (so in the source)
# [10] = 82 days after second fungicide application (so in the source)
# [11] = 89 days after second fungicide application (so in the source)
# [12] = 96 days after second fungicide application (so in the source)
# [13] = 103 days after second fungicide application (so in the source)
# [14] = 110 days after second fungicide application (so in the source)
# [15] = 117 days after second fungicide application (so in the source)
# [16] = glasshouse trial, statement in words
# [17] = BBCH 75 (mature milk), leaf F-1
# [18] = BBCH 75 (mature milk), leaf F-2
# [19] = BBCH 85 (mature dough), leaf F-1
# [20] = BBCH 85 (mature dough), leaf F-2
# [21] = BBCH 90, lear (so in the source)
structure (smiles),measurement,setting,value
"Cn1cc(C(=O)Nc2ccc(F)cc2-c2ccc(Cl)c(Cl)c2)c(C(F)F)n1 [Bixafen, N-(3′,4′-dichloro-5-fluoro-1,1′-biphenyl-2-yl)-3-(difluoromethyl)-1-methyl-1H-pyrazole-4-carboxamide]",Ears/m^2,wheat variety Ritmo [1],417
same,Harvest Index,wheat variety Ritmo [1],58.5
same,Straw,wheat variety Ritmo [1],590 g m^−2
same,TKM (thousand-kernel mass),wheat variety Ritmo [1],47.7 g
same,Yield,wheat variety Ritmo [1],8.5 t ha^−1
same,green leaf area of the flag leaf (F),[2]; [8],100 % leaf area
same,green leaf area of the second-from-top leaf (F-1),[2]; [8],100 % leaf area
same,green leaf area of the third-from-top leaf (F-2),[2]; [8],100 % leaf area
same,green leaf area of the flag leaf (F),[2]; [9],100 % leaf area
same,green leaf area of the second-from-top leaf (F-1),[2]; [9],100 % leaf area
same,green leaf area of the third-from-top leaf (F-2),[2]; [9],95 % leaf area
same,green leaf area of the flag leaf (F),[2]; [10],100 % leaf area
same,green leaf area of the second-from-top leaf (F-1),[2]; [10],95 % leaf area
same,green leaf area of the third-from-top leaf (F-2),[2]; [10],80 % leaf area
same,green leaf area of the flag leaf (F),[2]; [11],95 % leaf area
same,green leaf area of the second-from-top leaf (F-1),[2]; [11],85 % leaf area
same,green leaf area of the third-from-top leaf (F-2),[2]; [11],52 % leaf area
same,green leaf area of the flag leaf (F),[2]; [12],88 % leaf area
same,green leaf area of the second-from-top leaf (F-1),[2]; [12],57 % leaf area
same,green leaf area of the third-from-top leaf (F-2),[2]; [12],29 % leaf area
same,green leaf area of the flag leaf (F),[2]; [13],65 % leaf area
same,green leaf area of the second-from-top leaf (F-1),[2]; [13],33 % leaf area
same,green leaf area of the third-from-top leaf (F-2),[2]; [13],15 % leaf area
same,green leaf area of the flag leaf (F),[2]; [14],38 % leaf area
same,green leaf area of the second-from-top leaf (F-1),[2]; [14],20 % leaf area
same,green leaf area of the third-from-top leaf (F-2),[2]; [14],6 % leaf area
same,green leaf area of the flag leaf (F),[2]; [15],15 % leaf area
same,green leaf area of the second-from-top leaf (F-1),[2]; [15],5 % leaf area
same,green leaf area of the third-from-top leaf (F-2),[2]; [15],0 % leaf area
same,effect on the duration of the green leaf area of the wheat plant,[2]; [16],pronounced effect
same,time of heading of wheat (ears emerged),[3]; 45 days after sowing,1.8
same,time of heading of wheat (ears emerged),[3]; 50 days after sowing,15.5
same,time of heading of wheat (ears emerged),[3]; 55 days after sowing,42.2
same,time of heading of wheat (ears emerged),[3]; 60 days after sowing,57.0
same,time of heading of wheat (ears emerged),[3]; 65 days after sowing,78.0
same,time of heading of wheat (ears emerged),[3]; 70 days after sowing,88.7
same,time of heading of wheat (ears emerged),[3]; 75 days after sowing,93.5
same,time of heading of wheat (ears emerged),[3]; 80 days after sowing,96.7
same,time of heading of wheat (ears emerged),[3]; 85 days after sowing,98.5
same,uniformity of heading (ear emergence),[3]; [16],the heading is more uniform
same,yield components compared with the other comparison fungicides,[4]; [16],"a higher yield, a higher number of kernel/ear, a higher thousand-kernel mass and a lower straw fraction than the other comparison fungicides"
same,Ears/pot,[4],40.0
same,Harvest Index,[4],29.8%
same,Kernels/ear,[4],25.1
same,Straw,[4],88.5 g/pot
same,TKM (thousand-kernel mass),[4],37.5 g
same,Yield,[4],37.5 g/pot
same,Chlorophyll content,"wheat variety Ritmo [5]; BBCH 75 (mature milk), leaf F",1763 µg/g
same,Chlorophyll content,wheat variety Ritmo [5]; [17],1693 µg/g
same,Chlorophyll content,wheat variety Ritmo [5]; [18],1243 µg/g
same,Chlorophyll content,"wheat variety Ritmo [5]; BBCH 85 (mature dough), leaf F",738 µg/g
same,Chlorophyll content,wheat variety Ritmo [5]; [19],631 µg/g
same,Chlorophyll content,wheat variety Ritmo [5]; [20],404 µg/g
same,chlorophyll content and breakdown of chlorophyll,"wheat variety Ritmo [5]; alone or in combination with other active fungicidal ingredients, statement in words",the chlorophyll content overall is higher and the breakdown of chlorophyll is slower
same,Temperature (as a measure of the transpiration activity),"[6]; BBCH 75, ear",22.3 °C
same,Temperature (as a measure of the transpiration activity),"[6]; BBCH 75, leaf",22.1 °C
same,Temperature (as a measure of the transpiration activity),"[6]; BBCH 80, ear",18.2 °C
same,Temperature (as a measure of the transpiration activity),"[6]; BBCH 80, leaf",16.4 °C
same,Temperature (as a measure of the transpiration activity),"[6]; BBCH 85, ear",24.5 °C
same,Temperature (as a measure of the transpiration activity),"[6]; BBCH 85, leaf",23.3 °C
same,Temperature (as a measure of the transpiration activity),"[6]; BBCH 90, ear",24.1 °C
same,Temperature (as a measure of the transpiration activity),[6]; [21],22.3 °C
same,Length of the flag leaf,[7],28.1 cm
same,Width of the flag leaf,[7],1.7 cm
same,Area of the flag leaf,[7],32.01 cm^2
same,Area [rel.] of the flag leaf,[7],146 rel.
same,size (length and width) of the flag leaf compared with the other comparison fungicides,[7]; [16],greatest
same,Kernels/ear,"wheat; 1st. trial, applied at BBCH 33 + 59, twice 125 g a.i.",41.7
same,Kernels/ear,"wheat; 1st. trial, applied at BBCH 39 (bixafen 125 g a.i.; bixafen + prothioconazole 75 + 150 g a.i.)",42.6
OC(Cc1ccccc1Cl)(Cn1nc[nH]c1=S)C1(Cl)CC1 (stereo not drawn) [Prothioconazole],Ears/m^2,wheat variety Ritmo [1],397
same,Harvest Index,wheat variety Ritmo [1],59.3
same,Straw,wheat variety Ritmo [1],533 g m^−2
same,TKM (thousand-kernel mass),wheat variety Ritmo [1],46.3 g
same,Yield,wheat variety Ritmo [1],8.1 t ha^−1
same,green leaf area of the flag leaf (F),[2]; [8],100 % leaf area
same,green leaf area of the second-from-top leaf (F-1),[2]; [8],100 % leaf area
same,green leaf area of the third-from-top leaf (F-2),[2]; [8],100 % leaf area
same,green leaf area of the flag leaf (F),[2]; [9],100 % leaf area
same,green leaf area of the second-from-top leaf (F-1),[2]; [9],100 % leaf area
same,green leaf area of the third-from-top leaf (F-2),[2]; [9],95 % leaf area
same,green leaf area of the flag leaf (F),[2]; [10],100 % leaf area
same,green leaf area of the second-from-top leaf (F-1),[2]; [10],95 % leaf area
same,green leaf area of the third-from-top leaf (F-2),[2]; [10],83 % leaf area
same,green leaf area of the flag leaf (F),[2]; [11],95 % leaf area
same,green leaf area of the second-from-top leaf (F-1),[2]; [11],83 % leaf area
same,green leaf area of the third-from-top leaf (F-2),[2]; [11],53 % leaf area
same,green leaf area of the flag leaf (F),[2]; [12],85 % leaf area
same,green leaf area of the second-from-top leaf (F-1),[2]; [12],57 % leaf area
same,green leaf area of the third-from-top leaf (F-2),[2]; [12],30 % leaf area
same,green leaf area of the flag leaf (F),[2]; [13],62 % leaf area
same,green leaf area of the second-from-top leaf (F-1),[2]; [13],30 % leaf area
same,green leaf area of the third-from-top leaf (F-2),[2]; [13],17 % leaf area
same,green leaf area of the flag leaf (F),[2]; [14],38 % leaf area
same,green leaf area of the second-from-top leaf (F-1),[2]; [14],19 % leaf area
same,green leaf area of the third-from-top leaf (F-2),[2]; [14],8 % leaf area
same,green leaf area of the flag leaf (F),[2]; [15],15 % leaf area
same,green leaf area of the second-from-top leaf (F-1),[2]; [15],5 % leaf area
same,green leaf area of the third-from-top leaf (F-2),[2]; [15],0 % leaf area
same,time of heading of wheat (ears emerged),[3]; 45 days after sowing,6.9
same,time of heading of wheat (ears emerged),[3]; 50 days after sowing,29.0
same,time of heading of wheat (ears emerged),[3]; 55 days after sowing,42.6
same,time of heading of wheat (ears emerged),[3]; 60 days after sowing,48.2
same,time of heading of wheat (ears emerged),[3]; 65 days after sowing,64.1
same,time of heading of wheat (ears emerged),[3]; 70 days after sowing,77.9
same,time of heading of wheat (ears emerged),[3]; 75 days after sowing,87.1
same,time of heading of wheat (ears emerged),[3]; 80 days after sowing,94.9
same,time of heading of wheat (ears emerged),[3]; 85 days after sowing,100
same,Ears/pot,[4],43.1
same,Harvest Index,[4],27.3%
same,Kernels/ear,[4],22.2
same,Straw,[4],85.4 g/pot
same,TKM (thousand-kernel mass),[4],33.5 g
same,Yield,[4],32.1 g/pot
same,Chlorophyll content,"wheat variety Ritmo [5]; BBCH 75 (mature milk), leaf F",1740 µg/g
same,Chlorophyll content,wheat variety Ritmo [5]; [17],1637 µg/g
same,Chlorophyll content,wheat variety Ritmo [5]; [18],1207 µg/g
same,Chlorophyll content,"wheat variety Ritmo [5]; BBCH 85 (mature dough), leaf F",211 µg/g
same,Chlorophyll content,wheat variety Ritmo [5]; [19],163 µg/g
same,Chlorophyll content,wheat variety Ritmo [5]; [20],116 µg/g
same,Temperature (as a measure of the transpiration activity),"[6]; BBCH 75, ear",23.1 °C
same,Temperature (as a measure of the transpiration activity),"[6]; BBCH 75, leaf",22.4 °C
same,Temperature (as a measure of the transpiration activity),"[6]; BBCH 80, ear",19.5 °C
same,Temperature (as a measure of the transpiration activity),"[6]; BBCH 80, leaf",16.6 °C
same,Temperature (as a measure of the transpiration activity),"[6]; BBCH 85, ear",24.8 °C
same,Temperature (as a measure of the transpiration activity),"[6]; BBCH 85, leaf",23.7 °C
same,Temperature (as a measure of the transpiration activity),"[6]; BBCH 90, ear",24.2 °C
same,Temperature (as a measure of the transpiration activity),[6]; [21],23.1 °C
same,Length of the flag leaf,[7],26.7 cm
same,Width of the flag leaf,[7],1.3 cm
same,Area of the flag leaf,[7],23.26 cm^2
same,Area [rel.] of the flag leaf,[7],106 rel.
same,Kernels/ear,"wheat; 2nd trial, applied at BBCH 39 (prothioconazole 200 g a.i.; bixafen + prothioconazole 75 + 150 g a.i./ha)",30.1
